The record followed here is ChEMBL document CHEMBL4052743, “Oxindole-based intraocular pressure reducing agents” (Bioorg Med Chem Lett, 2017).

The source made the active and inactive calls. The rule behind the calls is not given here.

Broadly, the LD50 is the dose at which mortality reaches 50%. What is called IC50 is the concentration that gives 50% inhibition. In general, Ki refers to a measure of affinity in units of concentration, obtained from inhibition or displacement.

In the first series the test system is Oryctolagus cuniculus. The experiment in a line: Reduction in intraocular pressure in New Zealand white rabbit at 100 mg/10 ml dosed via topical route measured after 0.5 to 6 hrs post dose by tonometry. The series is classed as functional. Also on record: scale not given: the % may be the effect or the level left.
Conditions: not given
With `COC(=O)Nc1ccc2[nH]cc(CCNC(C)=O)c2c1`, the Activity is recorded as 45%.

Test system in a further series: not listed separately
The experiment in a line: Solubility in water. The conditions noted are these: buffer. The series is classed as physicochemical.
Regarding `CC(=O)Nc1ccc2c(c1)C(CC(=O)O)C(=O)N2` (centres undefined), the solubility entry was “Soluble”.

Test system in the next series: not listed separately
Briefly: Toxicity in rat. The conditions noted are these: in vivo.
Take `CC(=O)NCCC1(O)C(=O)Nc2ccc(NC(C)=O)cc21` (centres undefined): the LD50 was > 2400 mg/kg.

Consider `CC(=O)Nc1ccc2c(c1)C(CC#N)C(=O)N2C` (centres undefined), for which the LD50 is > 2400 mg/kg.

For the compound `CC(=O)Nc1ccc2c(c1)C(CC#N)C(=O)N2` (centres undefined), the LD50 was > 2400 mg/kg.

With `CC(=O)Nc1cccc2c1NC(=O)C2CC#N` (centres undefined), the LD50 was > 2400 mg/kg.

Turning to `CC(=O)Nc1ccc2c(c1)C(CC(=O)O)C(=O)N2` (centres undefined), the LD50 was > 2400 mg/kg.

As to `CC(=O)NCCc1cn(C)c2c(C)c(C)ccc12`, the LD50 is > 2400 mg/kg.

Regarding `CC(=O)Nc1ccc2c(c1)C(O)(CC(=O)O)C(=O)N2` (centres undefined), the LD50 is > 2400 mg/kg.

In the case of `COc1ccc2c(c1)c(CCNC(C)=O)cn2C`, the LD50 was > 2400 mg/kg.

For `N#CCC1C(=O)Nc2ccc(Br)cc21` (centres undefined), the LD50 was > 2400 mg/kg.

Regarding `COc1cc(NC(C)=O)c2c(c1)C(CC#N)(OC(C)=O)C(=O)N2` (centres undefined), the LD50 is > 2400 mg/kg.

With `COc1ccc2c(c1)C1(CC1CNC(C)=O)C(=O)N2C` (centres undefined), the 50% lethal dose (LD50) was > 2400 mg/kg.

Another series is filed under the species Oryctolagus cuniculus. Briefly: Reduction in intraocular pressure in Chinchilla rabbit assessed as maximum effective time required for reduction of intraaocular pressure at 0.1% after application of one drop (0.06 ml) of solution containing active compound/vehicle every hour (during 6 hours and after 24 hours) and measured after 24 hrs post dose by automatic tonometry. Format: functional.
Conditions: not given
For the compound `CC(=O)NCCC1(O)C(=O)Nc2ccc(NC(C)=O)cc21` (centres undefined), the result was inactive.

As for `CC(=O)Nc1ccc2c(c1)C(CC#N)C(=O)N2C` (centres undefined), the result was inactive.

In the case of `CC(=O)Nc1ccc2c(c1)C(CC#N)C(=O)N2` (centres undefined), the outcome was inactive.

Turning to `CC(=O)Nc1cccc2c1NC(=O)C2CC#N` (centres undefined), the outcome was inactive.

As to `CC(=O)NCCc1cn(C)c2c(C)c(C)ccc12`, the result was inactive.

As to `CC(=O)Nc1ccc2c(c1)C(O)(CC(=O)O)C(=O)N2` (centres undefined), the result was inactive.

Consider `COc1ccc2c(c1)c(CCNC(C)=O)cn2C`, for which the result was inactive.

In the case of `N#CCC1C(=O)Nc2ccc(Br)cc21` (centres undefined), the result was inactive.

For `COc1cc(NC(C)=O)c2c(c1)C(CC#N)(OC(C)=O)C(=O)N2` (centres undefined), the result was inactive.

On to `COc1ccc2c(c1)C1(CC1CNC(C)=O)C(=O)N2C` (centres undefined), for which the result was inactive.

The target of another series is T1, Ribosyldihydronicotinamide dehydrogenase [quinone] (Homo sapiens) (UniProt P16083).
T1 sequence (whole entry): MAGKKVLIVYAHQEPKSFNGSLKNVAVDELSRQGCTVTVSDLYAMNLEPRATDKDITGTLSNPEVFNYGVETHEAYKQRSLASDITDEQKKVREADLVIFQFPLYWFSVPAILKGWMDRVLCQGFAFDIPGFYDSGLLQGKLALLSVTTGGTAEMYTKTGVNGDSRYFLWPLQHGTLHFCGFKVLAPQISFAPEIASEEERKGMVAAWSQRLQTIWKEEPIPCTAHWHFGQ
Briefly: Inhibition of QR2 (unknown origin) using MTT and NMeH as substrates relative to control.
Conditions: not given
Consider `CC(=O)NCCc1cn(C)c2c(C)c(C)ccc12`, for which the Imax came out at 97.4%.

On to `COc1ccc2c(c1)c(CCNC(C)=O)cn2C`, for which the Imax was 102%.

Compound `COc1ccc2c(c1)C1(CC1CNC(C)=O)C(=O)N2C` (centres undefined) gave an Imax of 93.9%.

Another series concerns the target T2, Ribosyldihydronicotinamide dehydrogenase [quinone] (Homo sapiens, UniProt P16083).
T2 sequence (P16083 whole entry): T1 sequence (whole entry)
Briefly: Inhibition of QR2 (unknown origin) using MTT and NMeH as substrates.
Conditions: not given
For `CC(=O)NCCc1cn(C)c2c(C)c(C)ccc12`, the IC50 was determined as 4.5 µM.

As for `COc1ccc2c(c1)c(CCNC(C)=O)cn2C`, half-maximal inhibition (IC50) was put at 5.7 µM.

As for `COc1ccc2c(c1)C1(CC1CNC(C)=O)C(=O)N2C` (centres undefined), half-maximal inhibition (IC50) was put at 5.1 µM.

For another series, the species on record is Oryctolagus cuniculus. The experiment in a line: Reduction in intraocular pressure in Chinchilla rabbit assessed as maximal change in intraocular pressure at 0.1% after application of one drop (0.06 ml) of solution containing active compound/vehicle every hour (during 6 hours and after 24 hours) by automatic tonometry. Format: functional.
Conditions: not given
In the case of `CC(=O)NCCC1(O)C(=O)Nc2ccc(NC(C)=O)cc21` (centres undefined), the outcome was inactive.

With `CC(=O)Nc1ccc2c(c1)C(CC#N)C(=O)N2C` (centres undefined), the outcome was inactive.

With `CC(=O)Nc1ccc2c(c1)C(CC#N)C(=O)N2` (centres undefined), the Activity is listed as 22%.

On to `CC(=O)Nc1cccc2c1NC(=O)C2CC#N` (centres undefined), for which the outcome was inactive.

`CC(=O)Nc1ccc2c(c1)C(CC(=O)O)C(=O)N2` (centres undefined): the Activity came out at 41%.

For the compound `CC(=O)NCCc1cn(C)c2c(C)c(C)ccc12`, the outcome was inactive.

As for `CC(=O)Nc1ccc2c(c1)C(O)(CC(=O)O)C(=O)N2` (centres undefined), the Activity is 18%.

Take `COc1ccc2c(c1)c(CCNC(C)=O)cn2C`: the Activity turned out to be 8%.

In the case of `N#CCC1C(=O)Nc2ccc(Br)cc21` (centres undefined), the result was inactive.

With `COc1cc(NC(C)=O)c2c(c1)C(CC#N)(OC(C)=O)C(=O)N2` (centres undefined), the Activity was 18%.

In the case of `COc1ccc2c(c1)C1(CC1CNC(C)=O)C(=O)N2C` (centres undefined), the Activity came out at 10%.

Test system in another series: not listed separately
The experiment in a line: Inhibition of MT-3 (unknown origin). The arrangement: species or system Homo sapiens.
Conditions: not given
For the compound `COC(=O)Nc1ccc2[nH]cc(CCNC(C)=O)c2c1`, inhibition was half-maximal at 0.058 µM (IC50).

For another series, the species on record is Oryctolagus cuniculus. Briefly: Reduction in intraocular pressure in Chinchilla rabbit assessed as maximum effective time required for reduction of intraaocular pressure at 0.1% after application of one drop (0.06 ml) of solution containing active compound/vehicle every hour (during 6 hours and after 24 hours) by automatic tonometry. The series is classed as functional.
Conditions: not given
Regarding `CC(=O)NCCC1(O)C(=O)Nc2ccc(NC(C)=O)cc21` (centres undefined), the Time entry was “inactive”.

`CC(=O)Nc1ccc2c(c1)C(CC#N)C(=O)N2C` (centres undefined): the Time entry is “inactive”.

Turning to `CC(=O)Nc1ccc2c(c1)C(CC#N)C(=O)N2` (centres undefined), the Time is 4 h.

Regarding `CC(=O)Nc1cccc2c1NC(=O)C2CC#N` (centres undefined), the Time entry is “inactive”.

With `CC(=O)Nc1ccc2c(c1)C(CC(=O)O)C(=O)N2` (centres undefined), the Time is 4 h.

As to `CC(=O)NCCc1cn(C)c2c(C)c(C)ccc12`, the Time result is “inactive”.

For `CC(=O)Nc1ccc2c(c1)C(O)(CC(=O)O)C(=O)N2` (centres undefined), the Time stood at 2 h.

For the compound `COc1ccc2c(c1)c(CCNC(C)=O)cn2C`, the Time is 2 h.

`N#CCC1C(=O)Nc2ccc(Br)cc21` (centres undefined): the Time result was “inactive”.

Consider `COc1cc(NC(C)=O)c2c(c1)C(CC#N)(OC(C)=O)C(=O)N2` (centres undefined), for which the Time was found to be 2 h.

Turning to `COc1ccc2c(c1)C1(CC1CNC(C)=O)C(=O)N2C` (centres undefined), the Time stood at 2 h.

The species named for another series is Oryctolagus cuniculus. The experiment in a line: Reduction in intraocular pressure in Chinchilla rabbit assessed as maximum effective time required for reduction of intraaocular pressure at 0.1% after application of one drop (0.06 ml) of solution containing active compound/vehicle every hour (during 6 hours and after 24 hours) and measured after 6 hrs post dose by automatic tonometry. Format: functional.
Conditions: not given
Turning to `CC(=O)Nc1ccc2c(c1)C(CC(=O)O)C(=O)N2` (centres undefined), the result was Active.

Target in the next series: not listed separately
The experiment in a line: Binding affinity to MT-3 (unknown origin). The arrangement: species or system Homo sapiens.
Conditions: not given
Turning to `COC(=O)Nc1ccc2[nH]cc(CCNC(C)=O)c2c1`, the Ki was 0.065 µM.
